Calls of active or inactive are those of the source.
Legend:
Type in all cases: functional, cell-based
BSC-1 [1] = assay: Induction of severe microtubule disruption in african green monkey BSC1 cells at 20 uM after 4 hrs by immunocytochemistry; conditions: Chlorocebus aethiops
BSC-1 [2] = assay: Induction of reduced mitotic index in african green monkey BSC1 cells at 20 uM after 4 hrs by immunocytochemistry; conditions: Chlorocebus aethiops
BSC-1 [3] = assay: Induction of deffects in mitotic spindle in african green monkey BSC1 cells at 20 uM after 4 hrs by immunocytochemistry; conditions: Chlorocebus aethiops
BSC-1 [4] = assay: Antimitotic activity against african green monkey BSC1 cells assessed as induction of sphere like organization at 2.5 uM by immunofluorescence microscopy; conditions: Chlorocebus aethiops
BSC-1 [5] = assay: Antimitotic activity against african green monkey BSC1 cells assessed as induction of monopolar spindles at 20 uM by immunofluorescence microscopy; conditions: Chlorocebus aethiops
BSC-1 [6] = assay: Antimitotic activity against african green monkey BSC1 cells assessed as induction of chromosome alignment deffects at 20 uM by immunofluorescence microscopy; conditions: Chlorocebus aethiops
U2OS [7] = assay: Disruption of interphase microtubule organization in human U2OS cells at 250 uM after 4 hrs by immunofluorescence
U2OS [8] = assay: Reduction in gamma-tubulin level in centrosomes in human U2OS cells at 250 uM after 4 hrs by immunofluorescence

SMILES	Activity (BSC-1 [1])	Activity (BSC-1 [2])	Activity (BSC-1 [3])	Activity (BSC-1 [4])	Activity (BSC-1 [5])	Activity (BSC-1 [6])	Activity (U2OS [7])	Activity (U2OS [8])
CN1CCN(c2ncc([N+](=O)[O-])c(Nc3ccccc3C(=O)c3ccccc3)n2)CC1	Active	Active	Active					
CCCCNc1nc(Nc2ccc3ccccc3c2)ncc1[N+](=O)[O-]	Active	Active	Active					
O=[N+]([O-])c1cnc(Nc2ccc3[nH]ccc3c2)nc1Nc1ccc(Cl)c(Cl)c1	Active	Active	Active					
CN1CCN(c2ccc(Nc3ncc([N+](=O)[O-])c(Nc4ccc(Cl)c(Cl)c4)n3)cc2)CC1	Active	Active	Active					
O=[N+]([O-])c1cnc(Nc2ccc3c(c2)CCC3)nc1Nc1ccc(Cl)c(Cl)c1	Active	Active	Active					
CCN(CC)CCCC(C)Nc1ncc([N+](=O)[O-])c(Nc2ccc3ncsc3c2)n1 (centres undefined)	Active	Active	Active					
O=C(c1ccccc1)c1ccccc1Nc1nc(Nc2ccc3ccccc3c2)ncc1[N+](=O)[O-]	Active	Active	Active					
OCC(Cc1ccccc1)Nc1nccc(Nc2ccc3c(c2)OCO3)n1 (centres undefined)	Active	Active	Active					
O=[N+]([O-])c1cnc(NCc2cccs2)nc1Nc1ccc(Cl)c(Cl)c1	Active	Active	Active					
c1ccc2cc(Nc3nccc(Nc4ccc5c(c4)OCO5)n3)ccc2c1	Active	Active	Active					
CCCCNc1nc(Nc2ccc3[nH]ccc3c2)ncc1[N+](=O)[O-]	Active	Active	Active					
Clc1ccc(Nc2nccc(Nc3ccc4c(c3)OCO4)n2)cc1Cl	Active	Active	Active					
CC(C)(C)c1ccc(Nc2ncc([N+](=O)[O-])c(Sc3cccc(Cl)c3)n2)cc1	Active	Active	Active					
c1ccc(-c2nccn2-c2ccnc(NC3CCCC3)n2)cc1	Active	Active	Active					
O=[N+]([O-])c1cnc(Nc2ccc3ncsc3c2)nc1Nc1ccc(Cl)c(Cl)c1	Active	Active	Active					
CN1CCN(c2ccnc(Cl)n2)CC1	Active	Active	Active					
CC(=O)Nc1ccc(Nc2ccnc(NCc3cccs3)n2)cc1	Active	Active	Active					
O=C(c1ccccc1)c1ccccc1Nc1nc(NC2CCCC2)ncc1[N+](=O)[O-]	Active	Active	Active					
c1cc(Nc2nccc(Nc3ccc4c(c3)CCC4)n2)ccn1	Active	Active	Active					
O=[N+]([O-])c1cnc(NC(CO)Cc2ccccc2)nc1Nc1ccc(Cl)c(Cl)c1 (centres undefined)	Active	Active	Active					

SMILES	Activity (BSC-1 [1])	Activity (BSC-1 [2])	Activity (BSC-1 [3])	Activity (BSC-1 [4])	Activity (BSC-1 [5])	Activity (BSC-1 [6])	Activity (U2OS [7])	Activity (U2OS [8])
CC(=O)Nc1ccc(Nc2ccnc(Nc3ccncc3)n2)cc1	Active	Active	Active					
O=[N+]([O-])c1cnc(-n2ccnc2-c2ccccc2)nc1NC1CCCC1	Active	Active	Active					
CN1CCN(c2ccnc(NCc3cccs3)n2)CC1	Active	Active	Active					
O=[N+]([O-])c1cnc(NC2CCCCCC2)nc1Nc1ccc(Cl)c(Cl)c1	Active	Active	Active					
O=[N+]([O-])c1cnc(NC2CCCCCC2)nc1Nc1ccc2ncsc2c1	Active	Active	Active					
CC(=O)Nc1ccc(Nc2ncc([N+](=O)[O-])c(Nc3ccc(Cl)c(Cl)c3)n2)cc1	Active	Active	Active					
O=C(c1ccccc1)c1ccccc1Nc1nc(Nc2ccc3ncsc3c2)ncc1[N+](=O)[O-]	Active	Active	Active					
CC(C)(C)c1ccc(Nc2ncc([N+](=O)[O-])c(Nc3ccc(Cl)c(Cl)c3)n2)cc1	Active	Active	Active					
O=[N+]([O-])c1cnc(Nc2ccc3ccccc3c2)nc1Nc1ccc(Cl)c(Cl)c1	Active	Active	Active					
CC(=O)Nc1ccc(Nc2ncc([N+](=O)[O-])c(Sc3cccc(Cl)c3)n2)cc1	Active	Active	Active					
O=C(c1ccccc1)c1ccccc1Nc1nc(Nc2ccc3c(c2)CCC3)ncc1[N+](=O)[O-]	Active	Active	Active					
CN1CCN(c2nccc(Nc3ccc4c(c3)OCO4)n2)CC1	Active	Active	Active					
CCCCNc1ncc([N+](=O)[O-])c(Nc2ccccc2C(N)=O)n1	Active	Active	Active					
CN1CCN(c2ccc(Nc3ncc([N+](=O)[O-])c(Nc4ccccc4C(=O)c4ccccc4)n3)cc2)CC1			Active	Active	Active			
NC(=O)c1ccccc1Nc1nc(NCCCN2CCCC2=O)ncc1[N+](=O)[O-]	Active	Active	Active					
O=[N+]([O-])c1cnc(Nc2ccc(Cl)c(Cl)c2)nc1Nc1ccc2[nH]ccc2c1	Active	Active	Active					
NC(=O)c1ccccc1Nc1nc(NCc2cccs2)ncc1[N+](=O)[O-]	Active	Active	Active					
O=[N+]([O-])c1cnc(NC2CCCC2)nc1Sc1cccc(Cl)c1	Active	Active	Active					
NC(=O)c1ccccc1Nc1nc(NC2CCCCCC2)ncc1[N+](=O)[O-]	Active	Active	Active					
O=[N+]([O-])c1cnc(NC2CCCC2)nc1Nc1ccc2[nH]ccc2c1	Active	Active	Active					

SMILES	Activity (BSC-1 [1])	Activity (BSC-1 [2])	Activity (BSC-1 [3])	Activity (BSC-1 [4])	Activity (BSC-1 [5])	Activity (BSC-1 [6])	Activity (U2OS [7])	Activity (U2OS [8])
O=C(c1ccccc1)c1ccccc1Nc1nc(Nc2ccc3c(c2)OCO3)ncc1[N+](=O)[O-]			Active			Active		
CC(C)(Nc1ncc([N+](=O)[O-])c(NC2CCCC2)n1)c1ccccc1	Active	Active	Active					
CCCCNc1ncc([N+](=O)[O-])c(Nc2ccc3[nH]ccc3c2)n1	Active	Active	Active					
OCC1CCCN1c1nccc(Nc2ccc3c(c2)OCO3)n1 (centres undefined)	Active	Active	Active					
CCCCNc1ncc([N+](=O)[O-])c(NC2CCCC2)n1	Active	Active	Active					
O=[N+]([O-])c1cnc(NC2CCCC2)nc1Nc1ccc2ncsc2c1	Active	Active	Active					
COc1cc(OC)c(/C=C/S(=O)(=O)Cc2ccc(OC)c(NCC(=O)O)c2)c(OC)c1							inactive	inactive
CC(C)(C)c1ccc(Nc2ncc([N+](=O)[O-])c(NC3CCCC3)n2)cc1	Active	Active	Active					
CC(C)CC(CO)Nc1ncc([N+](=O)[O-])c(Nc2ccc3ncsc3c2)n1 (centres undefined)	Active	Active	Active					
CCN(CC)CCCC(C)Nc1ncc([N+](=O)[O-])c(NC2CCCC2)n1 (centres undefined)	Active	Active	Active					
O=C(c1ccccc1)c1ccccc1Nc1nc(Nc2ccc(Cl)c(Cl)c2)ncc1[N+](=O)[O-]	Active	Active	Active					
CC(=O)Nc1ccc(Nc2ccnc(NC(CO)Cc3ccccc3)n2)cc1 (centres undefined)	Active	Active	Active					
CCCCNc1nc(Nc2ccc(C(C)(C)C)cc2)ncc1[N+](=O)[O-]	Active	Active	Active					
c1ccc2cc(Nc3nccc(Nc4ccc5c(c4)CCC5)n3)ccc2c1	Active	Active	Active					
O=[N+]([O-])c1cnc(NC(CO)Cc2ccccc2)nc1Nc1ccc2ncsc2c1 (centres undefined)	Active	Active	Active					
CC(C)(Nc1ncc([N+](=O)[O-])c(Nc2ccc3ncsc3c2)n1)c1ccccc1	Active	Active	Active					
CC(=O)Nc1ccc(Nc2ncc([N+](=O)[O-])c(Nc3ccc4ncsc4c3)n2)cc1	Active	Active	Active					
c1csc(CNc2nccc(Nc3ccc4c(c3)OCO4)n2)c1			Active			Active		
CC(=O)Nc1ccc(Nc2nccc(Nc3ccc4c(c3)CCC4)n2)cc1	Active	Active	Active					

Reference: ChEMBL document CHEMBL1240317, “Probing cell-division phenotype space and Polo-like kinase function using small molecules” (Nat Chem Biol, 2006)
